Reference: patent publication US20090269419A1, “COSMETIC COMPOSITION BASED ON POLYUNSATURATED FATTY ACIDS AND ITS USES” (priority 2006, published 2009)

Experiments:
[1] = test system: melanocytes; assay: Inhibition of melanogenesis stimulated by theophylline; type: cell-based; conditions: AA-2G 2.5 mM for 12 hours; theophylline 0.5 mM
Experimental: • a) Culturing of melanocytes with AA-2G 2.5 mM+control without AA-2G for 12 hours • b) Stimulation of melanogenesis by theophylline (0.5 mM) • c) Detection of melanin by colorimetry (photos).

[2] = test system: melanocytes; assay: Reduction of intra-cellular melanin; type: cell-based; conditions: AA-2G 2 mM for 48 hours
Experimental: • a) Culturing of melanocytes for 48 hours • b) Addition of AA-2G 2 mM for 48 hours • c) Lysis of the cells in order to read the quantity of melanin contained.

[3] = test system: collagenase; assay: Anti-collagenase activity on frozen sections, collagen stained with picro-sirius and image analysis; type: biochemical
Experimental: The anti-collagenase activity test was carried out on ds-es frozen sections. The products to be tested were mixed (volume/volume) with a collagenase solution at 60 U/ml. Incubation took place in a humid chamber for 2 h at 37° C. The remaining collagen was stained with picro-sirius and quantified by image analysis.
• 1. Control TRIS buffer • 2. Collagenase […] • 3. Reference R: phenanthroline • 4. Reference R: phenanthroline+collagenase 60 U/ml • 5. Product P2: Immortelle very precious cream ref 05.34.A • 6. Product P2: Immortelle very precious cream ref 05.34.A+collagenase 60 U/ml
For each sample, 4 microscopic fields were analysed as a function of the size of the sample. Each microscopic field is digitised and analysed according to the method described below using the LEICA QWIN software.
1. Digitised Image • Staining of the collagen network
2. Detection of the Collagen by Thresholding • Binary mask 0
3. Determination of the Zone of Interest • Exclusion of the epidermis and annexes • Inversion of the mask so as to retain only the zone corresponding to the dermis • Binary mask 2
4. Selection of Collagen in the Zone of Interest • Binary mask 3=2+0
5. Surface measurement Measurement of binary mask 3 • Measurement of binary mask 2
6. Results Exporting of results to Excel • Calculation of the percentage of surface area occupied by collagen in the dermis

[4] = test system: keratinocytes; assay: Stimulation of ATP synthesis, intracellular ATP content by bioluminescence; type: cell-based; conditions: 0.01%; incubation for 6 hours
Experimental: After incubation for 6 hours, the intracellular ATP content was measured by bioluminescence using the kit “ATP Monitoring Kit” (LABSYSTEMS) according to the manufacturer's instructions. The results were expressed in mM of ATP and as a percentage of the control group.
Effect of Sepitonic M3 and of cytochrome C on the ATP content of keratinocytes after incubation for 6 hours: […]

## O=C1O[C@H]([C@@H](O)CO)C(O)=C1O[C@H]1O[C@H](CO)[C@@H](O)[C@H](O)[C@H]1O [AA-2G, O-α-D-glucopyranosyl-(1→2)-L-ascorbic acid]
[1]
  quantity of developed melanin versus untreated melanocytes (photos): lesser quantity of developed melanin
[2]
  reduction of intra-cellular melanin: 60%

## c1cnc2c(c1)ccc1cccnc12 [phenanthroline]
[3]
  anti-collagenase activity, in words: completely inhibits the effect of collagenase
[3]; With collagenase (60 U/ml mixed volume/volume), 2 h at 37° C.
  percentage of surface area occupied by collagen in the dermis, Mean (typical variance): 90.4 (3.8) %
[3]; without collagenase
  histological examination of the collagen: well structured
  percentage of surface area occupied by collagen in the dermis, Mean (typical variance): 88.7 (1.5) %

## Cytochrome C: reference in the keratinocyte ATP test
[4]
  ATP content of keratinocytes, percentage of the control group (ES): ES 110%
